Patent publication US20260262643A1, “HERBICIDAL BENZOXAZINES” (FMC CORPORATION, priority 2022, published 2026)

Tests used:
barnyardgrass [1] = experiment: Test C preemergence; format: in vivo, Echinochloa crusgalli; details: for Barnyardgrass plant response rating: 500 g ai/ha, preemergence, 0 to 100 scale (0 no effect, 100 complete control); for Plant response rating, Barnyardgrass: Preemergence, 125 g ai/ha, 0 to 100 scale, 0 no effect, 100 complete control
How it was run: (§1)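 Test material, in non-phytotoxic solvent with surfactant, was sprayed on the soil directly after seeding (preemergence) or on young plants of 2–10 cm with one to two leaves (postemergence). Greenhouse, 10 days; 0–100 visual control scale.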

blackgrass [2] = experiment: Test C preemergence; format: in vivo, Alopecurus myosuroides; details: for Blackgrass plant response rating: 500 g ai/ha, preemergence, 0 to 100 scale (0 no effect, 100 complete control); for Plant response rating, Blackgrass: Preemergence, 125 g ai/ha, 0 to 100 scale, 0 no effect, 100 complete control
How it was run: as §1

corn [3] = experiment: Test C preemergence; format: in vivo, Zea mays; details: for Corn plant response rating: 500 g ai/ha, preemergence, 0 to 100 scale (0 no effect, 100 complete control); for Plant response rating, Corn: Preemergence, 125 g ai/ha, 0 to 100 scale, 0 no effect, 100 complete control
How it was run: as §1

green foxtail [4] = experiment: Test C preemergence; format: in vivo, Setaria viridis; details: for Foxtail, Green plant response rating: 500 g ai/ha, preemergence, 0 to 100 scale (0 no effect, 100 complete control); for Plant response rating, Foxtail, Green: Preemergence, 125 g ai/ha, 0 to 100 scale, 0 no effect, 100 complete control
How it was run: as §1

kochia [5] = experiment: Test C preemergence; format: in vivo, Bassia scoparia; details: for Kochia plant response rating: 500 g ai/ha, preemergence, 0 to 100 scale (0 no effect, 100 complete control); for Plant response rating, Kochia: Preemergence, 125 g ai/ha, 0 to 100 scale, 0 no effect, 100 complete control
How it was run: as §1

oat, wild [6] = experiment: Test C preemergence; format: in vivo, Avena fatua; details: for Oat, Wild plant response rating: 500 g ai/ha, preemergence, 0 to 100 scale (0 no effect, 100 complete control); for Plant response rating, Oat, Wild: Preemergence, 125 g ai/ha, 0 to 100 scale, 0 no effect, 100 complete control
How it was run: as §1

pigweed, palmer [7] = experiment: Test C preemergence; format: in vivo, Amaranthus palmeri; details: for Pigweed, Palmer plant response rating: 500 g ai/ha, preemergence, 0 to 100 scale (0 no effect, 100 complete control); for Plant response rating, Pigweed, Palmer: Preemergence, 125 g ai/ha, 0 to 100 scale, 0 no effect, 100 complete control
How it was run: as §1

ragweed [8] = experiment: Test C preemergence; format: in vivo, Ambrosia artemisiifolia; details: for Ragweed plant response rating: 500 g ai/ha, preemergence, 0 to 100 scale (0 no effect, 100 complete control); for Plant response rating, Ragweed: Preemergence, 125 g ai/ha, 0 to 100 scale, 0 no effect, 100 complete control
How it was run: as §1

ryegrass, Italian [9] = experiment: Test C preemergence; format: in vivo, Lolium multiflorum; details: for Ryegrass, Italian plant response rating: 500 g ai/ha, preemergence, 0 to 100 scale (0 no effect, 100 complete control); for Plant response rating, Ryegrass, Italian: Preemergence, 125 g ai/ha, 0 to 100 scale, 0 no effect, 100 complete control
How it was run: as §1

soybean [10] = experiment: Test C preemergence; format: in vivo, Glycine max; details: for Soybean plant response rating: 500 g ai/ha, preemergence, 0 to 100 scale (0 no effect, 100 complete control); for Plant response rating, Soybean: Preemergence, 125 g ai/ha, 0 to 100 scale, 0 no effect, 100 complete control
How it was run: as §1

wheat [11] = experiment: Test C preemergence; format: in vivo, Triticum aestivum; details: for Wheat plant response rating: 500 g ai/ha, preemergence, 0 to 100 scale (0 no effect, 100 complete control); for Plant response rating, Wheat: Preemergence, 125 g ai/ha, 0 to 100 scale, 0 no effect, 100 complete control
How it was run: as §1

barnyardgrass [12] = experiment: Test C postemergence; format: in vivo, Echinochloa crusgalli; details: 10 days, 0 to 100 scale (0 no effect, 100 complete control)
How it was run: as §1

blackgrass [13] = experiment: Test C postemergence; format: in vivo, Alopecurus myosuroides; details: 10 days, 0 to 100 scale (0 no effect, 100 complete control)
How it was run: as §1

corn [14] = experiment: Test C postemergence; format: in vivo, Zea mays; details: 10 days, 0 to 100 scale (0 no effect, 100 complete control)
How it was run: as §1

green foxtail [15] = experiment: Test C postemergence; format: in vivo, Setaria viridis; details: 10 days, 0 to 100 scale (0 no effect, 100 complete control)
How it was run: as §1

kochia [16] = experiment: Test C postemergence; format: in vivo, Bassia scoparia; details: 10 days, 0 to 100 scale (0 no effect, 100 complete control)
How it was run: as §1

oat, wild [17] = experiment: Test C postemergence; format: in vivo, Avena fatua; details: 10 days, 0 to 100 scale (0 no effect, 100 complete control)
How it was run: as §1

pigweed, palmer [18] = experiment: Test C postemergence; format: in vivo, Amaranthus palmeri; details: 10 days, 0 to 100 scale (0 no effect, 100 complete control)
How it was run: as §1

ragweed [19] = experiment: Test C postemergence; format: in vivo, Ambrosia artemisiifolia; details: Postemergence, 125 g ai/ha; 0 to 100 scale (0 no effect, 100 complete control), 10 days
How it was run: as §1

ryegrass, Italian [20] = experiment: Test C postemergence; format: in vivo, Lolium multiflorum; details: Postemergence, 125 g ai/ha; 0 to 100 scale (0 no effect, 100 complete control), 10 days
How it was run: as §1

soybean [21] = experiment: Test C postemergence; format: in vivo, Glycine max; details: Postemergence, 125 g ai/ha; 0 to 100 scale (0 no effect, 100 complete control), 10 days
How it was run: as §1

wheat [22] = experiment: Test C postemergence; format: in vivo, Triticum aestivum; details: Postemergence, 125 g ai/ha; 0 to 100 scale (0 no effect, 100 complete control), 10 days
How it was run: as §1

horseweed = experiment: Test C postemergence; format: in vivo, Erigeron canadensis; details: 10 days, 0 to 100 scale (0 no effect, 100 complete control)
How it was run: as §1

barnyardgrass [23] = experiment: Test D flooded paddy test; format: in vivo, Echinochloa crus-galli; details: 250 g ai/ha, applied to paddy water, visual rating after 13 to 14 days, scale 0 to 100 (0 no effect, 100 complete control)
How it was run: (§2)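 Post-flood water application at the 2-leaf stage; 3 cm flood depth kept constant; visual control rating 0–100 after 13–14 days greenhouse growth.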

ducksalad = experiment: Test D flooded paddy test; format: in vivo, Heteranthera limosa; details: 250 g ai/ha, applied to paddy water, visual rating after 13 to 14 days, scale 0 to 100 (0 no effect, 100 complete control)
How it was run: as §2

rice = experiment: Test D flooded paddy test; format: in vivo, Oryza sativa; details: 250 g ai/ha, applied to paddy water, visual rating after 13 to 14 days, scale 0 to 100 (0 no effect, 100 complete control)
How it was run: as §2

sedge, umbrella = experiment: Test D flooded paddy test; format: in vivo, Cyperus difformis; details: 250 g ai/ha, applied to paddy water, visual rating after 13 to 14 days, scale 0 to 100 (0 no effect, 100 complete control)
How it was run: as §2

CCOC[C@H]1CN(C(=O)c2cc(-n3cnc(C(C)(C)C)n3)cc3c2OCO3)c2cccc(Cl)c2O1 [Compound 401]
Barnyardgrass plant response rating (barnyardgrass [1]): 70
Plant response rating, Barnyardgrass (barnyardgrass [1]): 30
Blackgrass plant response rating (blackgrass [2]): 30
Plant response rating, Blackgrass (blackgrass [2]): 30
Corn plant response rating (corn [3]): 20
Plant response rating, Corn (corn [3]): 0
Foxtail, Green plant response rating (green foxtail [4]): 100
Plant response rating, Foxtail, Green (green foxtail [4]): 20
Kochia plant response rating (kochia [5]): 90
Plant response rating, Kochia (kochia [5]): 0
Oat, Wild plant response rating (oat, wild [6]): 40
Plant response rating, Oat, Wild (oat, wild [6]): 0
Pigweed, Palmer plant response rating (pigweed, palmer [7]): 100
Plant response rating, Pigweed, Palmer (pigweed, palmer [7]): 100
Ragweed plant response rating (ragweed [8]): 60
Plant response rating, Ragweed (ragweed [8]): 0
Ryegrass, Italian plant response rating (ryegrass, Italian [9]): 90
Plant response rating, Ryegrass, Italian (ryegrass, Italian [9]): 70
Soybean plant response rating (soybean [10]): 40
Plant response rating, Soybean (soybean [10]): 0
Wheat plant response rating (wheat [11]): 20
Plant response rating, Wheat (wheat [11]): 0
Plant response rating, Barnyardgrass (barnyardgrass [12]; 500 g ai/ha, postemergence): 20
Plant response rating, Barnyardgrass (barnyardgrass [12]; Postemergence, 125 g ai/ha): 10
Plant response rating, Blackgrass (blackgrass [13]; 500 g ai/ha, postemergence): 30
Plant response rating, Blackgrass (blackgrass [13]; Postemergence, 125 g ai/ha): 10
Plant response rating, Corn (corn [14]; 500 g ai/ha, postemergence): 40
Plant response rating, Corn (corn [14]; Postemergence, 125 g ai/ha): 0
Plant response rating, Foxtail, Green (green foxtail [15]; 500 g ai/ha, postemergence): 20
Plant response rating, Foxtail, Green (green foxtail [15]; Postemergence, 125 g ai/ha): 10
Plant response rating, Kochia (kochia [16]; 500 g ai/ha, postemergence): 100
Plant response rating, Kochia (kochia [16]; Postemergence, 125 g ai/ha): 90
Plant response rating, Oat, Wild (oat, wild [17]; 500 g ai/ha, postemergence): 0
Plant response rating, Oat, Wild (oat, wild [17]; Postemergence, 125 g ai/ha): 0
Plant response rating, Pigweed, Palmer (pigweed, palmer [18]; 500 g ai/ha, postemergence): 90
Plant response rating, Pigweed, Palmer (pigweed, palmer [18]; Postemergence, 125 g ai/ha): 100
Plant response rating, Ragweed (ragweed [19]): 60
Plant response rating, Ryegrass, Italian (ryegrass, Italian [20]): 0
Plant response rating, Soybean (soybean [21]): 0
Plant response rating, Wheat (wheat [22]): 10
Plant response rating, Horseweed (horseweed; 500 g ai/ha, postemergence): 70
Plant response rating, Horseweed (horseweed; Postemergence, 125 g ai/ha): 60
Plant response rating, Barnyardgrass (Flood) (barnyardgrass [23]): 0
Plant response rating, Ducksalad (Flood) (ducksalad): 0
Plant response rating, Rice (Flood) (rice): 0
Plant response rating, Sedge, Umbrella (Flood) (sedge, umbrella): 0

Cc1ccc(-n2cnc(C3(C#N)CCC3)n2)cc1C(=O)N1C[C@H](C)Oc2c(Cl)cccc21 [Compound 402]
Barnyardgrass plant response rating (barnyardgrass [1]): 100
Plant response rating, Barnyardgrass (barnyardgrass [1]): 60
Blackgrass plant response rating (blackgrass [2]): 30
Plant response rating, Blackgrass (blackgrass [2]): 30
Corn plant response rating (corn [3]): 20
Plant response rating, Corn (corn [3]): 0
Foxtail, Green plant response rating (green foxtail [4]): 100
Plant response rating, Foxtail, Green (green foxtail [4]): 100
Kochia plant response rating (kochia [5]): 90
Plant response rating, Kochia (kochia [5]): 90
Oat, Wild plant response rating (oat, wild [6]): 40
Plant response rating, Oat, Wild (oat, wild [6]): 20
Pigweed, Palmer plant response rating (pigweed, palmer [7]): 100
Plant response rating, Pigweed, Palmer (pigweed, palmer [7]): 100
Ragweed plant response rating (ragweed [8]): 50
Plant response rating, Ragweed (ragweed [8]): 0
Ryegrass, Italian plant response rating (ryegrass, Italian [9]): 80
Plant response rating, Ryegrass, Italian (ryegrass, Italian [9]): 70
Soybean plant response rating (soybean [10]): 40
Plant response rating, Soybean (soybean [10]): 20
Wheat plant response rating (wheat [11]): 30
Plant response rating, Wheat (wheat [11]): 0
Plant response rating, Barnyardgrass (barnyardgrass [12]; 500 g ai/ha, postemergence): 50
Plant response rating, Barnyardgrass (barnyardgrass [12]; Postemergence, 125 g ai/ha): 20
Plant response rating, Blackgrass (blackgrass [13]; 500 g ai/ha, postemergence): 60
Plant response rating, Blackgrass (blackgrass [13]; Postemergence, 125 g ai/ha): 20
Plant response rating, Corn (corn [14]; 500 g ai/ha, postemergence): 60
Plant response rating, Corn (corn [14]; Postemergence, 125 g ai/ha): 10
Plant response rating, Foxtail, Green (green foxtail [15]; 500 g ai/ha, postemergence): 90
Plant response rating, Foxtail, Green (green foxtail [15]; Postemergence, 125 g ai/ha): 70
Plant response rating, Kochia (kochia [16]; 500 g ai/ha, postemergence): 90
Plant response rating, Kochia (kochia [16]; Postemergence, 125 g ai/ha): 90
Plant response rating, Oat, Wild (oat, wild [17]; 500 g ai/ha, postemergence): 20
Plant response rating, Oat, Wild (oat, wild [17]; Postemergence, 125 g ai/ha): 0
Plant response rating, Pigweed, Palmer (pigweed, palmer [18]; 500 g ai/ha, postemergence): 100
Plant response rating, Pigweed, Palmer (pigweed, palmer [18]; Postemergence, 125 g ai/ha): 90
Plant response rating, Ragweed (ragweed [19]): 90
Plant response rating, Ryegrass, Italian (ryegrass, Italian [20]): 30
Plant response rating, Soybean (soybean [21]): 40
Plant response rating, Wheat (wheat [22]): 20
Plant response rating, Horseweed (horseweed; 500 g ai/ha, postemergence): 70
Plant response rating, Horseweed (horseweed; Postemergence, 125 g ai/ha): 50
Plant response rating, Barnyardgrass (Flood) (barnyardgrass [23]): 25
Plant response rating, Ducksalad (Flood) (ducksalad): 45
Plant response rating, Rice (Flood) (rice): 0
Plant response rating, Sedge, Umbrella (Flood) (sedge, umbrella): 25
